Experimental data reported in paper PMC3256188, “Novel Nonphosphorylated Peptides with Conserved Sequences Selectively Bind to Grb7 SH2 Domain with Affinity Comparable to Its Phosphorylated Ligand” (PLoS ONE, 2012).
Entries after “also recorded” stand apart in the source; their conditions may differ.

Columns and labels:
[1] = biological target: Grb7 SH2 domain; design: method as in earlier work; settings: binding to Grb7 SH2 domain; calorimetric (title of ref 27); read-out: dissociation constant (Kd); cited from earlier work
Text: Many drugs are designed to target the SH2 domain of Grb7. […] This peptide also serves as a model for chemical drug de ...

[2] = biological target: T1, GFP-Grb7 SH2 domain and 41-mRLUC-3×Flag complex (Homo sapiens, UniProt Q14451); test: Competition immunoprecipitation, GFP-Grb7 SH2 domain and 41-mRLUC-3×Flag complex; type: binding
T1 construct: expressed in transfected cells; host or cells: HEK293T
T1 sequence (Q14451 425-532, one chain of several): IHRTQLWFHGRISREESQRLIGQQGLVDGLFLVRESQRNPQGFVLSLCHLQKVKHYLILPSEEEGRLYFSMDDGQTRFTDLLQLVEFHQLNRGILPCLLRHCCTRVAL
Text: To see whether the nonphosphorylated peptide could effectively compete with phosphorylated ligand for binding to the Grb7 SH2 domain, the phosphorylated ligand pY (1180) (DEEYEpY(1180)MNRRR), which was previously shown to interact with the Grb7 SH2 domain [6], and the nonphosphorylated 41-A ligand ([…]), which contains the first twenty-two amino acid-motif close to the N-terminus of peptide 41, were examine for their abilities to interfere with the GFP-Grb7 SH2 domain and 41-mRLUC-3×Flag complex using immunoprecipitation with anti-GFP antibody.
The phosphorylated ligand pY (1180) (DEEYEpY(1180)MNRRR) from the ErbB3 and the nonphosphorylated peptide 41-A ([…] RV) from nonphosphorylated peptide 41 were synthesized by the China Peptides Co., Ltd. The HPLC purification analysis and MS quality analysis reports were obtained.
HEK293T cells were washed 5 times with ice-cold PBS buffer and scraped off the plates into cell lysis buffer (1% Nonidet P-40, 0.02 M TRIS (pH 7.5), 0.15 M sodium chloride, 0.001 M EDTA, 0.5% sodium deoxycholate, 0.1% SDS and 0.001 M PMSF). Lysates were incubated on ice for 5 minutes, vortexed 2 times for 30 seconds each and centrifuged at 12,000 rpm for 15 minutes at 4°C. After centrifuging twice, the supernatant was incubated with anti-Flag antibody (1∶100, M20008M, Abmart, China) for 6–8 h at 4°C. Protein G agarose (40 µL) was added into 1 mL of the above mixture and coupled to the anti-Flag antibody for 3 h at 4°C. The immunoprecipitates were washed 2–3 times with PBS buffer (PH 7.4), and the sediments were diluted with 5×SDS electrophoresis buffer and heated at 97°C for 10 minutes. The proteins were separated by SDS-PAGE and transferred to PVDF membranes (IPVH00010, Millipore, USA). The membranes were incubated with anti-GFP antibody (1∶2000, P30010, Abmart, China) and goat anti-rabbit secondary antibody (1∶4000, M21002, Abmart, China) to identify target proteins. For the competition analyses, the immunoprecipitation complexes were mixed with anti-Flag antibody and different concentrations of the synthesized phosphorylated ligands or the nonphosphorylated ligands. The proteins were separated by SDS-PAGE, and the SH2 domain of Grb7 protein was analyzed using anti-GFP antibody. Western blot analysis was carried out using the Image J [37], the IC50 values were calculated by regression analyses using SPSS 17.0.

[3] = test system: SK-BR-3 breast cancer cells; test: MTS cell proliferation assay; type: cell-based; settings: double-factor variance analysis, n = 10, p<0.001, Figure 4B
Protocol: For the cell proliferation assay, the anti-Grb7 antibody (N-20, Santa Cruz Biotechnology, USA) and the anti-Flag antibody (M20008M, Abmart, China) were used for the western blot, and MTS (Promega, USA) was used for the analysis of cell proliferation.
The MTS cell proliferation assay was performed to analyze the proliferation of SK-BR-3 breast cancer cells (Cell culture center of PUMC, China) according to the manufacturer's instructions (Promega, USA). SK-BR-3 cells at 70%–80% confluency were transiently transfected respectively with plasmids of 41-mRLUC-3×Flag or mRLUC-3×Flag and Mega Tran 1.0 (OriGene, USA). Beginning from 12 h after transfection, 400 µg/mL G418 (11811-023, Invitrogen, USA) was used to select for the transfected cells. The u-bottom 96-well microtiter plates (Corning, USA) were seeded with approximately 7.50×10^3 cells per well at 18 h after transfection. […] The absorbance at 492 nm of transfected cells and control DMEM medium was measured separately at 18 h, 24 h, 36 h, 48 h and 60 h after transfection on Synergy4 Multi-Mode Microplates Readers (BioTek, USA). The absorbance was adjusted by differences in the absorbance between cell culture medium and control medium without seeded cells. The data were analyzed by double-factor variance analysis using SPSS 17.0.

[4] = test system: EYFP-tagged Grb7 SH2 domain; test: Bioluminescence Resonance Energy Transfer (BRET) in HEK293T cells; type: cell-based; settings: 36 h after transfection, EYFP-Grb7 SH2 + mRLUC-tagged peptide, coelenterazine 5.9 µM, eighteen group ratios
Text: For the BRET assay, the EYFP fragment was generated by PCR amplification. The ErbB3-mRLUC plasmid was constructed by the Beijing Sino Biological Inc. The SH2 domain of Grb7 was fused to the EYFP fragment, and the nonphosphorylated peptides 10 and 41 were fused to the mRLUC fragment. The Grb7 SH2 domain sequence was inserted at the C-terminus of the EYFP tag.
(§1) HEK293T cells at 70%–80% confluency were given fresh DMEM (high glucose) culture medium and transfected with plasmids using the calcium phosphate method. Samples were collected at 36 h after transfection.
In BRET, the Renilla luciferase (mRLUC) is fused to the candidate protein, and the green fluorescent protein mutant (EYFP) is fused to the target protein. Interactions between the two fused proteins bring the luciferase and the green fluorescent protein into close proximity, which promotes resonance energy transfer from mRLUC to EYFP [38]. Then EYFP is […] at 530 nm, and the emission is used to determine the binding between the two interacting proteins. In this study, HEK293T cells were collected at 36 h after transfection, 100 µL of mixed cell suspension was added to the u-bottom 96-well microtiter plates (Corning, USA) before measurement. The measurement of bioluminescence, with rasters of 460/40 nm and 518/20 nm, was performed on Synergy4 Multi-Mode Microplates Readers (BioTek, USA). The BRET reaction was initiated by 5.9 µM coelenterazine (Promega, USA). Data were analyzed by one-factor analysis of variance using SPSS 17.0.

[5] = test system: Grb7 SH2 domain; test: Co-immunoprecipitation from transfected HEK293T cells; type: binding; settings: HEK293T co-transfected with peptide-mRLUC-3×Flag and EGFP-Grb7 SH2, 36 h; anti-Flag IP, anti-GFP blot
Text: In the co-immunoprecipitation assay, the mRLUC fragment was generated by PCR amplification. The inserted sequence of the Grb7 SH2 domain was as follows: N- […]-C. This sequence was inserted at the C terminus of the EGFP tag. The sequence of peptide 10 was as follows: N-[…]-C. The sequence of peptide 41 was as follows: N-[…]-C. The sequence of peptide 10CM was as follows: N-[…]-C. The nonphosphorylated peptide and the mRLUC fragment were inserted at the N-terminus of the Flag tag. The mRLUC fragment was fused with the nonphosphorylated peptide so that they could be easily identifiable. The empty vector containing the mRLUC fragment was used as the negative control.
as §1
HEK293T cells were washed 5 times with ice-cold PBS buffer and scraped off the plates into cell lysis buffer (1% Nonidet P-40, 0.02 M TRIS (pH 7.5), 0.15 M sodium chloride, 0.001 M EDTA, 0.5% sodium deoxycholate, 0.1% SDS and 0.001 M PMSF). […] The proteins were separated by SDS-PAGE, and the SH2 domain of Grb7 protein was analyzed using anti-GFP antibody. Western blot analysis was carried out using the Image J [37], the IC50 values were calculated by regression analyses using SPSS 17.0.

| Substance | Kd [1] [nM] | interference with binding of the Grb7 SH2 domain to peptide 41 ([2]; 0.0072 mM) | interference with binding of the Grb7 SH2 domain to peptide 41 ([2]; 0.036 mM) | interference with binding of the Grb7 SH2 domain to peptide 41 ([2]; 0.18 mM) | disruptive effect on the Grb7 SH2 domain/peptide 41 interaction ([2]; Figure 3A, overall, concentration not given) | binding affinity to the Grb7 SH2 domain, comparison of 41-A and pY (1180) ([2]; in vitro competition, in words) | adjusted absorbance between transfected cell groups and between time points [3] | binding to the Grb7 SH2 domain in the absence of competitor ([2]; in the absence of peptide pY (1180) and peptide 41-A, Figure 3A) | BRET luminescence ratio of 530/480 nm [4] | pull-down of the Grb7 SH2 domain (co-immunoprecipitation) [5] |
| --- | --- | --- | --- | --- | --- | --- | --- | --- | --- | --- |
| DEEYEpY(1180)MNRRR [pY (1180), phosphorylated ligand pY (1180) (DEEYEpY(1180)MNRRR) from the ErbB3, reference compound] | ~1150 | did not significantly interfere | did not significantly interfere | nearly abolished | abolished the association between the Grb7 SH2 domain and nonphosphorylated peptide 41 | at least comparable binding affinities to the Grb7 SH2 domain | – | – | – | – |
| N-VGTWTTRGPWCPCVAVGIPTQPTTSSEPSPPSNPPWDPGRVLLGRIVWPGLLALGIPTHHQNDTYNSPHAHPNRDP-C [peptide 41, nonphosphorylated peptide with two twenty-two residue motifs, 41-A and 41-B] | – | – | – | – | – | – | Statistically significant differences existed in both of groups | could bind to the Grb7 SH2 domain | significantly stronger | pulled down the Grb7 SH2 domain; also recorded: co-immunoprecipitated |
